In general, EC50 refers to the concentration giving half of the maximal effect. One may read the Emax as the size of the effect at its maximum, as opposed to the concentration needed.

The structures appear in SMILES notation.

The assay has as its target human F508del-CFTR (Homo sapiens, UniProt P13569, DEL508-508). Nature of the assay: F508del-CFTR cell surface expression (corrector activity), DiscoveRx ß-galactosidase complementation chemiluminescence assay in recombinant U2OS cell line.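 For all read-outs here: U2OS cells co-expressing ProLink-tagged F508del-CFTR and a membrane-anchored enzyme acceptor, where more surface CFTR restores β-galactosidase activity measured by chemiluminescence.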 The conditions noted are these: for EC50: EC50, F508del-CFTR cell surface expression, U2OS cells, 16h compound incubation, geomean values; for Emax: U2OS, in relation to Emax of corrector lumacaftor (=100%), arithmetic mean values.

Sequence of human F508del-CFTR (P13569 with tags, fused parts or gaps DEL508-508): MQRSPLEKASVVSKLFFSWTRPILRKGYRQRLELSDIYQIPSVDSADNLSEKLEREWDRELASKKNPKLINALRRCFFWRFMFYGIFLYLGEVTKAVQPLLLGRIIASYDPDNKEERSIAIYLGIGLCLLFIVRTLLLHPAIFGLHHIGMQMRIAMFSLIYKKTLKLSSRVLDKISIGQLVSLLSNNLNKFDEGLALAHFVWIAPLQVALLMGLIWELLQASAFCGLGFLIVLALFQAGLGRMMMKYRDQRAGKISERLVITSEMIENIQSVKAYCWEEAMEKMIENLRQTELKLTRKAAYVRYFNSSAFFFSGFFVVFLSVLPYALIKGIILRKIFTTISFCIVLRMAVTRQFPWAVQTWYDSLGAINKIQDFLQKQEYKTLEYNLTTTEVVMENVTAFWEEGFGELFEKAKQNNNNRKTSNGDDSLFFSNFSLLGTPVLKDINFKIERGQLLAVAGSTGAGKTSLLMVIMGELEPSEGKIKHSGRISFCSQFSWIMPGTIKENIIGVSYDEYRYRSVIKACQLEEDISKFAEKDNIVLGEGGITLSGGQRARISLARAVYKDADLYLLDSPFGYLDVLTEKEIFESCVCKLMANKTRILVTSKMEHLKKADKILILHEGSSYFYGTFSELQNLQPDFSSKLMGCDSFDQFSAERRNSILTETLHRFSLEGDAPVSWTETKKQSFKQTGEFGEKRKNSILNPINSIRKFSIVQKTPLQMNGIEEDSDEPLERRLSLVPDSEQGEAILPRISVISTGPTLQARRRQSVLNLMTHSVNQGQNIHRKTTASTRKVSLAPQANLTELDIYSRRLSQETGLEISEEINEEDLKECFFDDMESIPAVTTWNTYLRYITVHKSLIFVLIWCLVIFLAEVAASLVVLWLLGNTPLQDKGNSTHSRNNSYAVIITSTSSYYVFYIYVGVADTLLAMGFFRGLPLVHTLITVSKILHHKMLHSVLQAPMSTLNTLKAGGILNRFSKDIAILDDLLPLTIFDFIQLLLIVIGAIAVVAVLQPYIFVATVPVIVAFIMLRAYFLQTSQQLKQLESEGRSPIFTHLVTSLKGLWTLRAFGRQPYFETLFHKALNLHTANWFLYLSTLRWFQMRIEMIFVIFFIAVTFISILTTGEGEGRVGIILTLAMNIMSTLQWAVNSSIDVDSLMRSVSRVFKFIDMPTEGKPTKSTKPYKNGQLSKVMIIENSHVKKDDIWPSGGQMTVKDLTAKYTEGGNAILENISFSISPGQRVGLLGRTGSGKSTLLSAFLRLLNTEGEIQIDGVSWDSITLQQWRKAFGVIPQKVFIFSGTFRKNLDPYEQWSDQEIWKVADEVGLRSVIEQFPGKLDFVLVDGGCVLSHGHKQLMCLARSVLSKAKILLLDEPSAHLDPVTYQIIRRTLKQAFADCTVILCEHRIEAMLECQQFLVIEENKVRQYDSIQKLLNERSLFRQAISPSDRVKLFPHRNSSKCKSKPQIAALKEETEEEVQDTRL

With `COc1cc(CCNC(=O)[C@@H]2CC(=O)N(C)[C@@H](CC(C)C)C(=O)N(C)[C@H](C)C(=O)N[C@H](Cc3ccccc3)COc3ccnc(OC)c3C(=O)N2)on1` [Example 771, (3R,6R,9S,13S)-3-benzyl-9-isobutyl-16-methoxy-N-(2-(3-methoxyisoxazol-5-yl)ethyl)-6,7,10-trimethyl-5,8,11,15-tetraoxo-2,3,4,5,6,7,8,9,10,11,12,13,14,15-tetradecahydropyrido[3,4-p][1]oxa[4,7,10,14]tetraazacycloheptadecine-13-carboxamide], the EC50 was determined as 0.597 µM and the Emax was 299%.

Regarding `COc1cc(CCNC(=O)[C@@H]2CC(=O)N(C)[C@@H](CC(C)C)C(=O)N(C)[C@H](C)C(=O)N[C@H](Cc3ccccc3)COc3cc(C)nc(OC)c3C(=O)N2)on1` [Example 772, (3R,6R,9S,13S)-3-benzyl-9-isobutyl-16-methoxy-N-(2-(3-methoxyisoxazol-5-yl)ethyl)-6,7,10,18-tetramethyl-5,8,11,15-tetraoxo-2,3,4,5,6,7,8,9,10,11,12,13,14,15-tetradecahydropyrido[3,4-p][1]oxa[4,7,10,14]tetraazacycloheptadecine-13-carboxamide], the EC50 amounted to 0.514 µM and the Emax was 343%.

For `CC[C@@H]1C(=O)N[C@H](Cc2ccccc2)COc2cc(C)nc(OC)c2C(=O)N[C@H](C(=O)NCCc2cc(C)no2)CC(=O)N(C)[C@@H](CC(C)C)C(=O)N1C` [Example 773, (3R,6R,9S,13S)-3-benzyl-6-ethyl-9-isobutyl-16-methoxy-7,10,18-trimethyl-N-(2-(3-methylisoxazol-5-yl)ethyl)-5,8,11,15-tetraoxo-2,3,4,5,6,7,8,9,10,11,12,13,14,15-tetradecahydropyrido[3,4-p][1]oxa[4,7,10,14]tetraazacycloheptadecine-13-carboxamide], the half-maximal effective concentration (EC50) turned out to be 0.841 µM and the Emax came to 339%.

`CC[C@@H]1C(=O)N[C@H](Cc2ccccc2)COc2cc(C)nc(OC)c2C(=O)N[C@H](C(=O)NCCc2cccc(OC)c2)CC(=O)N(C)[C@@H](CC(C)C)C(=O)N1C` [Example 774, (3R,6R,9S,13S)-3-benzyl-6-ethyl-9-isobutyl-16-methoxy-N-(3-methoxyphenethyl)-7,10,18-trimethyl-5,8,11,15-tetraoxo-2,3,4,5,6,7,8,9,10,11,12,13,14,15-tetradecahydropyrido[3,4-p][1]oxa[4,7,10,14]tetraazacycloheptadecine-13-carboxamide]: the EC50 was determined as 0.751 µM and the Emax was determined as 345%.

In the case of `COc1nc(C)cc2c1C(=O)N[C@H](C(=O)NCCc1cc(C)no1)CC(=O)N(C)[C@@H](CC(C)C)C(=O)N(C)[C@H](CC(F)F)C(=O)N[C@H](Cc1ccccc1)CO2` [Example 775, (3R,6R,9S,13S)-3-benzyl-6-(2,2-difluoroethyl)-9-isobutyl-16-methoxy-7,10,18-trimethyl-N-(2-(3-methylisoxazol-5-yl)ethyl)-5,8,11,15-tetraoxo-2,3,4,5,6,7,8,9,10,11,12,13,14,15-tetradecahydropyrido[3,4-p][1]oxa[4,7,10,14]tetraazacycloheptadecine-13-carboxamide], the EC50 turned out to be 0.875 µM and the maximum response (Emax) was determined as 359%.

For `COc1cc(CCNC(=O)[C@@H]2CC(=O)N(C)[C@@H](CC(C)C)C(=O)N(C)[C@H](CC(F)(F)F)C(=O)N[C@H](Cc3ccccc3)COc3ccnc(OC)c3C(=O)N2)on1` [Example 776, (3R,6R,9S,13S)-3-benzyl-9-isobutyl-16-methoxy-N-(2-(3-methoxyisoxazol-5-yl)ethyl)-7,10-dimethyl-5,8,11,15-tetraoxo-6-(2,2,2-trifluoroethyl)-2,3,4,5,6,7,8,9,10,11,12,13,14,15-tetradecahydropyrido[3,4-p][1]oxa[4,7,10,14]tetraazacycloheptadecine-13-carboxamide], the EC50 stood at 0.325 µM and the Emax turned out to be 360%.
